From PubChem BioAssay AID330 (DTP/NCI, 2004)
Where “and” joins values, the source holds several entries; their conditions need not be identical. Equal entries are not always repeated. Toxic doses and inconclusive results are not listed. How the source made its calls: active means survival T/C of 150% or more; inactive means T/C below 125% in these data. Peptide text beside a SMILES is read from it. * marks the point of attachment. Boc = CC(C)(C)OC(=O)*

System: P388 leukemia ip, CD2F1 mice, survival T/C
Test: NCI In Vivo Anticancer Drug Screen. Data for tumor model P388 Leukemia (intraperitoneal) in CD2F1 (CDF1) mice
Details: endpoint: median survival time, higher = longer survival
Procedure, shortened: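 Mice carrying the transplanted tumor received test compound or vehicle. Survival was recorded in each group, and the value is the treated-group measurement divided by that of the vehicle-treated control group.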

[1] = dose: 60.0 mg/kg/injection, schedule: Q01DX005 (ip), vehicle: saline with Tween-80
[2] = dose: 120.0 mg/kg/injection, schedule: Q01DX005 (ip), vehicle: saline with Tween-80
[3] = dose: 240.0 mg/kg/injection, schedule: Q01DX005 (ip), vehicle: saline with Tween-80
[4] = dose: 60.0 mg/kg/injection, schedule: Q01DX005 (ip), vehicle: saline
[5] = dose: 120.0 mg/kg/injection, schedule: Q01DX005 (ip), vehicle: saline
[6] = dose: 240.0 mg/kg/injection, schedule: Q01DX005 (ip), vehicle: saline
[7] = dose: 50.0 mg/kg/injection, schedule: Q01DX005 (ip), vehicle: saline with Tween-80
[8] = dose: 100.0 mg/kg/injection, schedule: Q01DX005 (ip), vehicle: saline with Tween-80
[9] = dose: 200.0 mg/kg/injection, schedule: Q01DX005 (ip), vehicle: saline with Tween-80
[10] = dose: 50.0 mg/kg/injection, schedule: Q01DX005 (ip), vehicle: Klucel (hydroxypropylcellulose) (HPC)
[11] = dose: 100.0 mg/kg/injection, schedule: Q01DX005 (ip), vehicle: Klucel (hydroxypropylcellulose) (HPC)
[12] = dose: 100.0 mg/kg/injection, schedule: Q01DX009 (ip), vehicle: saline
[13] = dose: 200.0 mg/kg/injection, schedule: Q01DX009 (ip), vehicle: saline
[14] = dose: 50.0 mg/kg/injection, schedule: Q01DX009 (ip), vehicle: saline
[15] = dose: 5.0 mg/kg/injection, schedule: Q01DX009 (ip), vehicle: saline with Tween-80
[16] = dose: 10.0 mg/kg/injection, schedule: Q01DX009 (ip), vehicle: saline with Tween-80
[17] = dose: 50.0 mg/kg/injection, schedule: Q01DX009 (ip), vehicle: saline with Tween-80
[18] = dose: 200.0 mg/kg/injection, schedule: Q01DX005 (ip), vehicle: Klucel (hydroxypropylcellulose) (HPC)
[19] = dose: 100.0 mg/kg/injection, schedule: Q01DX009 (ip), vehicle: saline with Tween-80
[20] = dose: 200.0 mg/kg/injection, schedule: Q01DX009 (ip), vehicle: saline with Tween-80
[21] = dose: 60.0 mg/kg/injection, schedule: Q01DX005 (ip), vehicle: Klucel (hydroxypropylcellulose) (HPC)
[22] = dose: 120.0 mg/kg/injection, schedule: Q01DX005 (ip), vehicle: Klucel (hydroxypropylcellulose) (HPC)
[23] = dose: 240.0 mg/kg/injection, schedule: Q01DX005 (ip), vehicle: Klucel (hydroxypropylcellulose) (HPC)

Measured: T/C

Cc1c(-c2nnc(N)o2)cc([N+](=O)[O-])cc1[N+](=O)[O-]
inactive: [1] 98 % of control | [2] 100 % of control | [3] 99 % of control

C#CCOC(=O)Nc1nc2ccc([N+](=O)[O-])cc2s1
inactive: dose: 50.0 mg/kg/injection, schedule: Q01DX009 (ip), vehicle: Klucel (hydroxypropylcellulose) (HPC) 101 % of control | dose: 100.0 mg/kg/injection, schedule: Q01DX009 (ip), vehicle: Klucel (hydroxypropylcellulose) (HPC) 99 % of control | dose: 200.0 mg/kg/injection, schedule: Q01DX009 (ip), vehicle: Klucel (hydroxypropylcellulose) (HPC) 92 % of control

Cc1ncc(COP(=O)(O)O)c(C2NC(C(=O)O)CS2)c1O (centres undefined)
inactive: dose: 50.0 mg/kg/injection, schedule: Q01DX005 (ip), vehicle: saline 115 % of control | [4] 92 % of control | dose: 100.0 mg/kg/injection, schedule: Q01DX005 (ip), vehicle: saline 107 % of control | [5] 94 % of control | dose: 200.0 mg/kg/injection, schedule: Q01DX005 (ip), vehicle: saline 113 % of control | [6] 91 % of control

CC(=O)OC1CC2CC(O)(C(=O)CO)CC2C2CCC3=CC(=O)CC3C(C)(O)C12 (centres undefined)
inactive: [1] 100 % of control | [2] 93 % of control | [3] 93 % of control

Cc1ccc2nc3c4ccccc4c4ccccc4c3nc2c1C
inactive: [7] 94 % of control | [8] 86 % of control | [9] 89 % of control

NNC(N)=NC1CCCCC1
inactive: [10] 95 % of control | [11] 97 % of control

O=C(O)C1CCN1 (centres undefined)
inactive: [12] 93 % of control | [13] 86 % of control | dose: 300.0 mg/kg/injection, schedule: Q01DX009 (ip), vehicle: saline 86 % of control

Cc1[nH]oc(=O)c1C(=O)O
inactive: [14] 100 % of control | [12] 99 % of control | [13] 89 % of control

CC1OC(c2ccc3c(c2O)C(=O)C2=C(C3=O)[C@H]3OC(=O)C[C@H]3O[C@@H]2C)CC(N(C)C)C1O (some centres undefined)
inactive: dose: 1.5 mg/kg/injection, schedule: Q01DX005 (ip), vehicle: other 91 % of control | dose: 750.0 micrograms/kg/injection, schedule: Q01DX005 (ip), vehicle: other 86 % of control | dose: 1500.0 micrograms/kg/injection, schedule: Q01DX005 (ip), vehicle: other 90 % of control | dose: 3000.0 micrograms/kg/injection, schedule: Q01DX005 (ip), vehicle: other 88 % of control

Nc1ccc2cc3ccccc3cc2c1
inactive: [15] 95 % of control | dose: 5.0 mg/kg/injection, schedule: Q04DX003 (ip), vehicle: saline with Tween-80 95 % of control | [16] 104 % of control | dose: 10.0 mg/kg/injection, schedule: Q04DX003 (ip), vehicle: saline with Tween-80 91 % of control | dose: 12.5 mg/kg/injection, schedule: Q01DX009 (ip), vehicle: saline with Tween-80 100 % of control | dose: 20.0 mg/kg/injection, schedule: Q01DX009 (ip), vehicle: saline with Tween-80 118 % of control | dose: 20.0 mg/kg/injection, schedule: Q04DX003 (ip), vehicle: saline with Tween-80 112 % of control | dose: 25.0 mg/kg/injection, schedule: Q01DX009 (ip), vehicle: saline with Tween-80 109 % of control | dose: 40.0 mg/kg/injection, schedule: Q01DX009 (ip), vehicle: saline with Tween-80 118 % of control | dose: 40.0 mg/kg/injection, schedule: Q04DX003 (ip), vehicle: saline with Tween-80 112 % of control | [17] 109 % of control

CN(C)CCC(=O)C(=Cc1ccco1)C(=O)CCN(C)C
inactive: [4] 100 % of control | [5] 104 % of control | [6] 109 % of control

c1ccc2c(c1)ccc1[nH]c3ccc4ccccc4c3c12
inactive: dose: 1.56 mg/kg/injection, schedule: Q01DX005 (ip), vehicle: Klucel (hydroxypropylcellulose) (HPC) 100 % of control and 109 % of control and 111 % of control | dose: 3.12 mg/kg/injection, schedule: Q01DX005 (ip), vehicle: Klucel (hydroxypropylcellulose) (HPC) 107 % of control and 116 % of control and 117 % of control

COC(=O)C(Cc1ccccc1)NC(=O)C(Cc1ccccc1)NC(=O)OC(C)(C)C (stereo not drawn) (Boc-Phe-Phe-OMe; configuration not given here)
inactive: [10] 97 % of control | [11] 95 % of control | [18] 101 % of control

O=[N+]([O-])c1ccc(N/N=C\c2c(Cl)[nH]c3ccccc23)c([N+](=O)[O-])c1
inactive: [17] 93 % of control | [19] 93 % of control | [20] 87 % of control

COc1ccc(-n2c(-c3ccc(-n4c(C)nc5ccccc5c4=O)cc3)n[nH]c2=S)cc1
inactive: dose: 37.5 mg/kg/injection, schedule: Q01DX005 (ip), vehicle: Klucel (hydroxypropylcellulose) (HPC) 102 % of control | dose: 75.0 mg/kg/injection, schedule: Q01DX005 (ip), vehicle: Klucel (hydroxypropylcellulose) (HPC) 105 % of control | dose: 150.0 mg/kg/injection, schedule: Q01DX005 (ip), vehicle: Klucel (hydroxypropylcellulose) (HPC) 104 % of control

COc1ccccc1C(=O)c1ccccc1C(=O)O
inactive: [10] 101 % of control | [11] 105 % of control | [18] 103 % of control

CCOC(=O)c1cnc2cc3c(cc2c1Nc1cccc(C(F)(F)F)c1)OCO3
inactive: [21] 96 % of control | [22] 102 % of control | [23] 101 % of control

CC(C)(C)SCC(CSC(C)(C)C)(CSC(C)(C)C)CSC(C)(C)C
inactive: dose: 1.5 mg/kg/injection, schedule: Q01DX001 (ip), vehicle: saline with Tween-80 102 % of control | dose: 3.0 mg/kg/injection, schedule: Q01DX001 (ip), vehicle: saline with Tween-80 98 % of control | dose: 6.0 mg/kg/injection, schedule: Q01DX001 (ip), vehicle: saline with Tween-80 112 % of control

N#CC1(O)CCCCC1
inactive: dose: 2.5 mg/kg/injection, schedule: Q01DX009 (ip), vehicle: saline with Tween-80 100 % of control | [15] 104 % of control | [16] 104 % of control

CCN1c2ccccc2SC1CC1=C(O)C(CC2Sc3ccccc3N2CC)=C1O (centres undefined)
inactive: [21] 91 % of control | [22] 96 % of control | [23] 89 % of control

CN(C)CCOc1ccccc1Cc1ccccc1
inactive: [17] 95 % of control | [19] 100 % of control | [20] 118 % of control

Cc1nnc2c([Se])nccn12
inactive: dose: 100.0 mg/kg/injection, schedule: Q01DX001 (ip), vehicle: saline with Tween-80 99 % of control | dose: 200.0 mg/kg/injection, schedule: Q01DX001 (ip), vehicle: saline with Tween-80 93 % of control

COC(=O)c1c(-c2cc(OC)c(OC)cc2[N+](=O)[O-])cn(C)c1C
inactive: [7] 88 % of control | [8] 86 % of control

C(=C\c1ccccn1)/c1ccc(/C=C/c2ccccn2)cc1
inactive: [1] 98 % of control | [2] 103 % of control | [3] 97 % of control

N#CC1=C(C#N)C(=O)C(Br)=C(Br)C1=O
inactive: dose: 12.5 mg/kg/injection, schedule: Q01DX005 (ip), vehicle: Klucel + Tween-80 108 % of control | dose: 25.0 mg/kg/injection, schedule: Q01DX005 (ip), vehicle: Klucel + Tween-80 106 % of control | dose: 50.0 mg/kg/injection, schedule: Q01DX005 (ip), vehicle: Klucel + Tween-80 108 % of control

CCOc1c(N=Nc2ccccc2C)c(-c2ccccc2)nn1C(N)=S
inactive: [7] 90 % of control | [8] 88 % of control | [9] 90 % of control

C=CCN(CC=C)C1C(O)CCOC1OC (centres undefined)
inactive: [4] 109 % of control and 101 % of control | [5] 107 % of control and 103 % of control | [6] 109 % of control and 102 % of control

COC(=O)c1nc(=S)[nH]c(C(=O)OC)c1C(=O)c1cccnc1
inactive: [4] 108 % of control | [5] 110 % of control

CCCCCCCCS(=O)(=O)NC
inactive: dose: 25.0 mg/kg/injection, schedule: Q01DX009 (ip), vehicle: saline 117 % of control | [14] 102 % of control | [13] 102 % of control
